Experimental data as given in US11419865B2, “Method for inducing a sustained immune response” (Cytocom Inc., priority 2016, dated 2022).
Like-named read-outs stand apart in the source and are kept apart here.

What was measured:
[1] = tested on: women meeting criteria for fibromyalgia; test: fibromyalgia study in ten women; type: in vivo, human; conditions: 4.5 mg
From the text: […]. […] Baseline erythrocyte sedimentation rate predicted over 80% of the variance in drug response. […]. Which confirms the ability of Immediate release naltrexone to decree pain and inflammation.

[2] = tested on: HIV; conditions: 3 mg compounded, with ART, cited from earlier work
[3] = tested on: HIV; test: single blind 90 day randomized bridging clinical trial in Nigeria, asymptomatic HIV+ adults on ART; type: in vivo, human
Experimental: The differences in CD4 count, CD4%, hemoglobin, viral load, interferon alpha, and standard chemistry panel were measured between treated versus non-treated groups four times throughout the study. […] When used alone, it appears to slow and/or stop the progression of the disease.

[4] = tested on: patients with hematologic malignancies; test: randomized controlled trial of quality of life (EORTC QLQ-C30), 89 hematologic cancer patients; type: in vivo, human
Experimental: 89 patients Hematologic Cancer Patients This was a randomized controlled trial assessing quality of life in patients with hematologic malignancies from a single institute in Hamedan. […] Quality of life was measured using the EORTC QLQ-C30 in four points in time (at admission, 1, 3 and 5 months follow-up).
Data were analyzed to compare quality of life in two groups. In total, 89 patients were studied (45 in treatment group and 44 in placebo group). There were no significant differences between two groups either in demographic and clinical characteristics or in baseline quality of life scores.
This study aimed to investigate its effect on hematologic cancer patients. This was a randomized controlled trial assessing quality of life in patients with hematologic malignancies from a single institute. […] Quality of life was measured using the EORTC QLQ-C30 in four points in time (at admission, 1, 3 and 5 months follow-up). Data were analyzed to compare quality of life in two groups. Totally, 89 patients were studied (45 in treatment group and 44 in placebo group). There were no significant differences between two groups either in demographic and clinical characteristics or in baseline quality of life scores. However, at 1 month, 3 and 5-month follow-up assessments significant differences were observed. […].

[5] = tested on: diabetic neuropathy patient; test: diabetic neuropathy case report; type: in vivo, human
From the text: person, diagnosed with diabetic neuropathy for the last six years was prescribed one or two tablets every four to six hours as needed for pain. Patient takes between 4 to 8 tablets a day.

[6] = tested on: patients diagnosed with fibromyalgia; test: open label single center study, twenty-five fibromyalgia patients; type: in vivo, human; conditions: 4.5 mg
[7] = tested on: MS patients; test: retrospective chart review of MS patients receiving LDN; type: in vivo, human
From the text: This study investigated the safety, tolerability, and benefits (fatigue, reduction) of LDN in patients with MS. It reviewed the number of patients who stopped taking LDN and if there were specific reasons for stopping the LDN. The frequency and variety of side effects that were specific to LDN use are reported. […] 1, 2005 and May 31, 2012. There were 215 MS patients having exposure to LDN during the time of this study. […] In addition to the assessment we review Brain MRIs and Spinal Cord MRIs that were obtained as part of the clinical status of the patient and standard of care.
It reviewed the number of patients who stopped taking IMMEDIATE RELEASE NALTREXONE (LDN) and if there were specific reasons for stopping the IMMEDIATE RELEASE NALTREXONE (LDN). […] 1, 2005 and May 31, 2012. […]. In addition to the assessment we review Brain MRIs and Spinal Cord MRIs that were obtained as part of the clinical status of the patient and standard of care. […].

[8] = tested on: patients with active Crohn's disease; test: 12-week study of 4.5 mg naltrexone/day in active Crohn's disease (17 patients); type: in vivo, human
Experimental: . Infliximab was not allowed for a minimum of 8 weeks prior to study initiation. Other therapy for Crohn's disease that was at a stable dose for 4 weeks prior to enrollment was continued at the same doses. Patients completed the inflammatory bowel disease questionnaire (IBDQ) and the short-form (SF-36) quality of life surveys and CDAI scores were assessed pretreatment, every 4 weeks on therapy and 4 weeks after completion of the study drug. Drug was administered by mouth each evening for a 12-week period. RESULTS: Seventeen patients with a mean CDAI score of 356+/−27 were enrolled.

[9] = tested on: subjects with active Crohn's disease; test: randomized placebo-controlled study, forty subjects with active Crohn's disease; type: in vivo, human
From the text: Forty subjects with active Crohn's disease were enrolled in the study. […] Providers and patients were masked to treatment assignment. The primary outcome was the proportion of subjects in each arm with a 70-point decline in Crohn's Disease Activity Index score (CDAI). The secondary outcome included mucosal healing based upon colonoscopy appearance and histology. […].

[10] = tested on: children with autism; test: autism, 155 children in 10 studies; type: in vivo, human
From the text: 155 children participated in 10 studies; 27 received placebo. […].

O=C1CC[C@@]2(O)[C@H]3Cc4ccc(O)c5c4[C@@]2(CCN3CC2CC2)[C@H]1O5 [Immediate release naltrexone, naltrexone]
Side effects (including insomnia and vivid dreams) [1]: rare, and described as minor and transient
mechanical and heat pain thresholds ([1]; laboratory visits): improved
improvement in CD4 count vs control group ([2]; at 6 months, p=0.041, 51 vs 49 subjects): significantly greater than the control group
improvement in CD4 count vs control group ([2]; at 9 months, p=0.067): marginally
Improvement in CD4% ([2]; throughout treatment): not statistically significant
increase in CD4 count ([3]; about 4.5 mg single oral dose with ART, at 3 months): 44%
BMI ([3]; about 4.5 mg with ART): increase in BMI
opportunistic infections ([3]; about 4.5 mg with ART): reduction in opportunistic infections
improvement in CD4 count vs control group ([3]; about 4.5 mg with ART, at 3 months, control 54 subjects): significantly greater than the control group
Improvement in CD4% ([3]; about 4.5 mg with ART, throughout treatment): the increases were statistically significant
social functioning (EORTC QLQ-C30) vs placebo ([4]; 3 mg capsules daily plus routine treatment, one month follow-up, p<0.05): better condition in the treatment group
blood laboratory tests ([4]; 3 mg daily): no changes in the blood laboratory tests
social functioning, role functioning, nausea and vomiting and appetite loss vs placebo ([4]; 3 mg daily, 3-month follow-up, all p-values<0.05): better in the treatment group
physical, social, role functioning, global quality of life, nausea and vomiting and appetite loss vs placebo ([4]; 3 mg daily, 5-month follow-up): significantly better
additional benefits, diabetic neuropathy ([5]; 4.5 mg): resolutions of RLS
pain medication use, diabetic neuropathy ([5]; 4.5 mg from March of 2015, within 3 days): cut down the number of pills in half
pain medication use, diabetic neuropathy ([5]; 4.5 mg, within 8 weeks): stopped all pain medication
average improvement in FIQR in eleven patients (50%) [6]: 41%
quality of life over a long period of time ([7]; 215 MS patients exposed): improvement in quality of life
Brain MRI scans showing improvement ([7]; of 215 patients): 14 MRI scans
Brain MRI scans slightly worse ([7]; of 215 patients, new but inactive lesion(s)): 28 MRI scans
CDAI scores ([8]; 4.5 mg/day by mouth each evening, 12 weeks, baseline mean 356+/−27, P=0.01): decreased significantly
laboratory abnormalities ([8]; 4.5 mg/day, 12 weeks): No laboratory abnormalities were noted
patients with response to therapy ([8]; 4.5 mg/day, 12 weeks): Eighty-nine
patients achieving remission ([8]; 4.5 mg/day, 12 weeks, P<0.001): 67%
CDAI scores after end of therapy ([8]; 4 weeks after completing therapy): remained lower than baseline
quality of life surveys (IBDQ, SF-36) ([8]; compared with baseline): Improvement was recorded in both quality of life surveys
subjects with at least a 70-point decline in CDAI scores ([9]; 4.5-mg daily oral, placebo 40%, p=0.009): Eighty-eight
subjects achieving remission with a CDEIS score<6 ([9]; after 12 weeks, placebo 8%): 33%
subjects with endoscopic response (5-point decline in CDEIS) ([9]; after 12 weeks, placebo 28%, p=0.008): 78%
side effects ([9]; vs placebo): Fatigue was the only side effect reported that was significantly greater in subjects receiving placebo
children with statistically significant improvement in symptoms of irritability and hyperactivity ([10]; 98 of the 128 that received naltrexone): 77%
side effects and tolerability ([10]; in vivo): Side effects were mild and the drug was generally well tolerated
